From US20090197955A1, “METHODS OF IMPROVING DHA DEPOSITION AND RELATED FUNCTION AND/OR DEVELOPMENT” (Monsanto Company, priority 2008, published 2009)

Test: Fatty acid composition of pig tissues (ham, loin, belly, skin) after feeding SDA ethyl ester diets, 35 day study
Assay type: in vivo, pigs
Protocol: A 35 day study was conducted to determine whether pigs fed a diet containing SDA could enhance tissues with improved fatty acid profiles including increased levels of SDA, EPA, and DHA.
Four test diets (Treatment 2, 3, 4, and 5) with SDA ethyl ester substituted for corn oil to provide 0.2, 0.4, 0.6 and 0.8% (w/w SDA active ingredient, as-is basis) were fed ad libitum to one pen of four pigs throughout the 35-day test period Table 4). All diets were fed in meal form. Treatment 6 was fed the same diet as Treatment 5, but for a duration of only 21 days.
All pigs were individually weighed at initiation of the acclimation and test period, and immediately prior to slaughter. Feed consumption per pen was recorded. Upon completion of the feeding period, pigs were slaughtered for tissue collection and carcass evaluation. Pigs were slaughtered using standard industry practices (electrical stunning, exsanguinations, scalding, dehairing and evisceration). Live weights prior to slaughter and hot carcass weights were recorded. The left side of each carcass was fabricated and samples were obtained from the loin (longissimus muscle), ham (semimembranosus muscle) and belly (a section from the center of the belly) for sensory evaluation, fatty acid, and proximate analysis. Prior to removing the sample for sensory and fatty and proximate analysis from the belly the firmness of the belly was evaluated using a flop test. At 24 hr postmortem fat thickness (10th rib), loin eye area (10th rib), visual color, firmness and marbling, Minolta color (L*a*b*), pH, and drip loss were measured.
In order to evaluate the fatty acid composition of pig tissues (loin, ham, skin, and belly), samples were stored at −80° C. until evaluation. After thawing, ˜22 g of fresh pig tissue was chopped into small pieces and thoroughly mixed before 10 g was sub sampled and lyophilized. Lyophilized samples were ground in 30 ml Sarstedt tubes with two ball bearings using a Mega Grinder. Ground samples (loin and ham: 50 mg; skin: 100 mg; belly: 150 mg; diet: 500 mg) were directly methylated with sulfuric acid in methanol (loin and ham: 1 mL; skin: 3 mL; belly: 10 mL; diet: 1.5 mL) sealed in the presence of butylated hydroxytoluene (50 mg BHT in 100 ml reagent) in reflux conditions of 90° C. Resultant fatty acid methyl esters (FAME's) were separated by capillary gas chromatography (GC) and detected by flame ionization detector (FID). The column used was a Supelco Omegawax 250 capillary column with dimensions of 30 m×0.25 mm×0.25 μm film thickness. The run time was 32 minutes. Peaks were identified based on their relative retention time compared to a FAME reference mixture. Quantification was achieved by using an internal standard (c15:0 triacylglyceride (TAG) for pig tissue samples and c17:0 TAG for diet samples). Results are reported as FA g/100 g fat with theoretical response correction.
For Table 6 below, each value represents g/100 g total fatty acids a mean of 4 samples (1 sample from each of 4 pigs) per treatment.

## CC/C=C\C/C=C\C/C=C\C/C=C\CCCCC(=O)O [SDA, stearidonic acid]
SDA 0.6%, 35 Day
  18:4 n-3, ham: 3.56c mg FA/100 g of fresh tissue
  20:1 n-9, ham: 13.3 mg FA/100 g of fresh tissue
  20:2 n-6, ham: 6.1b mg FA/100 g of fresh tissue
  20:3 n-3, ham: 0.87 mg FA/100 g of fresh tissue
  20:4 n-3, ham: 5.85c mg FA/100 g of fresh tissue
  20:4 n-6, ham: 55.3 mg FA/100 g of fresh tissue
  20:5 n-3, ham: 11.32bc mg FA/100 g of fresh tissue
  22:1 n-11, ham: 0.58a mg FA/100 g of fresh tissue
  22:5 n-3, ham: 14.4bc mg FA/100 g of fresh tissue
  22:6 n-3, ham: 2.14 mg FA/100 g of fresh tissue
  Lipid content, ham: 2.24%
  Total PUFA, ham: 337.7 mg FA/100 g of fresh tissue
  Total monoenes, ham: 1039 mg FA/100 g of fresh tissue
  Total n-3, ham: 43.1b mg FA/100 g of fresh tissue
  Total n-6, ham: 294.5 mg FA/100 g of fresh tissue
  Total saturates, ham: 765.2 mg FA/100 g of fresh tissue
  n-3/n-6, ham: 0.147
SDA 0.8%, 21 Day
  12:0, ham: 2.2 mg FA/100 g of fresh tissue
  14:0, ham: 36.8 mg FA/100 g of fresh tissue
  16:0, ham: 701.1 mg FA/100 g of fresh tissue
  16:1 n-7, ham: 108.3 mg FA/100 g of fresh tissue
  18:0, ham: 358.1 mg FA/100 g of fresh tissue
  18:1 n-7, ham: 138.1 mg FA/100 g of fresh tissue
  18:1 n-9, ham: 1266.2 mg FA/100 g of fresh tissue
  18:2 n-6, ham: 290.7 mg FA/100 g of fresh tissue
  18:3 n-3, ham: 8.66 mg FA/100 g of fresh tissue
  18:4 n-3, ham: 3.67c mg FA/100 g of fresh tissue
  20:1 n-9, ham: 21.8 mg FA/100 g of fresh tissue
  20:2 n-6, ham: 11.3a mg FA/100 g of fresh tissue
  20:3 n-3, ham: 1.33 mg FA/100 g of fresh tissue
  20:4 n-3, ham: 7.23c mg FA/100 g of fresh tissue
  20:4 n-6, ham: 63.4 mg FA/100 g of fresh tissue
  20:5 n-3, ham: 9.68b mg FA/100 g of fresh tissue
  22:1 n-11, ham: 0.95ab mg FA/100 g of fresh tissue
  22:5 n-3, ham: 13.2bc mg FA/100 g of fresh tissue
  22:6 n-3, ham: 1.85 mg FA/100 g of fresh tissue
  Lipid content, ham: 3.23%
  Total PUFA, ham: 433.7 mg FA/100 g of fresh tissue
  Total monoenes, ham: 1546 mg FA/100 g of fresh tissue
  Total n-3, ham: 45.6b mg FA/100 g of fresh tissue
  Total n-6, ham: 388.1 mg FA/100 g of fresh tissue
  Total saturates, ham: 1104.4 mg FA/100 g of fresh tissue
  n-3/n-6, ham: 0.121c
SDA 0.8%, 35 Day
  12:0, ham: 1.04 mg FA/100 g of fresh tissue
  14:0, ham: 18.3 mg FA/100 g of fresh tissue
  16:0, ham: 386.7 mg FA/100 g of fresh tissue
  16:1 n-7, ham: 52.8 mg FA/100 g of fresh tissue
  18:0, ham: 206.6 mg FA/100 g of fresh tissue
  18:1 n-7, ham: 81.5 mg FA/100 g of fresh tissue
  18:1 n-9, ham: 685.9 mg FA/100 g of fresh tissue
  18:2 n-6, ham: 208.6 mg FA/100 g of fresh tissue
  18:3 n-3, ham: 4.70 mg FA/100 g of fresh tissue
  18:4 n-3, ham: 4.09c mg FA/100 g of fresh tissue
  20:1 n-9, ham: 9.9 mg FA/100 g of fresh tissue
  20:2 n-6, ham: 5.1b mg FA/100 g of fresh tissue
  20:3 n-3, ham: 0.62 mg FA/100 g of fresh tissue
  20:4 n-3, ham: 5.36bc mg FA/100 g of fresh tissue
  20:4 n-6, ham: 54.2 mg FA/100 g of fresh tissue
  20:5 n-3, ham: 14.69c mg FA/100 g of fresh tissue
  22:1 n-11, ham: 0.57a mg FA/100 g of fresh tissue
  22:5 n-3, ham: 14.2bc mg FA/100 g of fresh tissue
  22:6 n-3, ham: 2.35 mg FA/100 g of fresh tissue
  Lipid content, ham: 1.88%
  Total PUFA, ham: 330.6 mg FA/100 g of fresh tissue
  Total monoenes, ham: 846 mg FA/100 g of fresh tissue
  Total n-3, ham: 46.0b mg FA/100 g of fresh tissue
  Total n-6, ham: 284.6 mg FA/100 g of fresh tissue
  Total saturates, ham: 616.6 mg FA/100 g of fresh tissue
  n-3/n-6, ham: 0.162
SDA fed for the last 35 days prior to slaughter
  Omega 3 fatty acid enrichment in belly, loin, ham and skin tissues as compared to the control: significant increase
Treatment 5 (35 day) vs Treatment six (21 day), 0.8% SDA, ham
  More DHA deposition with 35 days than with 21 days of SDA consumption: about 27%
